According to US8318941B2, “Pyridone/hydroxypyridine 11-beta hydroxysteroid dehydrogenase type I inhibitors” (Bristol-Myers Squibb Company, priority 2006, dated 2012):

Target: T1, 11beta-HSD1 (Homo sapiens, UniProt P28845)
T1 sequence (P28845 whole entry): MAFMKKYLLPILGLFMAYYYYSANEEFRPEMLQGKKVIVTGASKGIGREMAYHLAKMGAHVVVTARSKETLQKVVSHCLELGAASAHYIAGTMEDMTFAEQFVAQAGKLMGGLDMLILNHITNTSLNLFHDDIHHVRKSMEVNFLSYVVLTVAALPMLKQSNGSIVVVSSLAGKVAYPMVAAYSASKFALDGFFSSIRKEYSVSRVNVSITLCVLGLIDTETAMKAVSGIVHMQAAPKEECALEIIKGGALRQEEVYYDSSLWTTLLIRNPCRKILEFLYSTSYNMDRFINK
Experiment: not given
Parameters: host or cells: patients (liver), in vivo
Conditions: patients with type 2 diabetes, seven day treatment, versus placebo; cited from earlier work
For `CC1(C)[C@@H](OC(=O)CCC(=O)O)CC[C@]2(C)[C@H]3C(=O)C=C4[C@@H]5C[C@@](C)(C(=O)O)CC[C@]5(C)CC[C@@]4(C)[C@]3(C)CC[C@@H]12` [carbenoxolone], the hepatic glucose production is given as “decrease in hepatic glucose production”.

Target: T1, 11beta-HSD1
Experiment: In vitro inhibition of recombinant human 11beta-HSD1 (microsomal Scintillation Proximity Assay)
Format: biochemical
Parameters: made in house; microsomal fraction used as enzyme source
Conditions: microsomes from HEK 293 EBNA cells, 250 nM [3H]-cortisone, 500 μM NADPH, pH 6.5, room temperature
Method: The in vitro inhibition of recombinant human 11beta-HSD1 was determined as follows.
Cells were grown in DMEM (high glucose) containing MEM non-essential amino acids, L-glutamine, hygromycine B (200 ug/ml), and G418(200 ug/ml). The cell pellets were homogenized, and the microsomal fraction was obtained by differential centrifugation. 11beta-HSD1 over expressed microsomes were used as the enzyme source for the Scintillation Proximity Assay (SPA). […] The reaction was terminated with the addition of 1 mM 18β-glycerrhentic acid. SPA reagent mixture (YSi anti-rabbit IgG, anti-cortisol antibody in 50 mM Tris, pH 8.0 containing 1% CHAPS and 1% glycerol) was added and the reaction was further incubated at room temperature over night and counted in TopCount. […]
Molecule `Oc1nc(SCc2cccc(Cl)c2)c2ccccc2c1Cl` [Example 115] has an IC50 of 780 nM. Molecule `N#Cc1c(O)nc(SCc2cnccc2Cl)c2cc(F)ccc12` [Example 164] has an IC50 of 2.73 nM. `Oc1cc2c(c(SCc3ccccc3Cl)n1)N1CCC2CC1` [Example 29] gave an IC50 of over 10000 nM. `O=S(=O)(Cc1cccc(Cl)c1)c1nc(O)c(Cl)c2ccccc12` [Example 118] showed an IC50 of 530 nM. `NC(=O)c1c(O)nc(SCc2ccccc2Cl)c2c1CCCC2` [Example 3, 1-(2-Chlorobenzylthio)-3-hydroxy-5,6,7,8-tetrahydroisoquinoline-4-carboxamide] gave an IC50 of over 10000 nM. `N#Cc1c(O)nc(SCc2cc(F)ccc2F)c2cc(F)ccc12` [Example 175] gave an IC50 of 2.58 nM. `N#Cc1c(O)nc(SCc2cccnc2Cl)c2c1CCCC2` [Example 32] gave an IC50 of 2.73 nM. With `N#Cc1c(O)nc(SCc2ccccc2Cl)c2c1CCNC2` [Example 35] the IC50 was 460 nM. `N#Cc1ccncc1CSc1nc(O)c(C#N)c2ccc(F)cc12` [Example 170] showed an IC50 of 1.49 nM. Work on `N#Cc1ccccc1CSc1nc(O)c(Cl)c2ccc(Cl)cc12` [Example 132] yielded an IC50 of 2.26 nM. In the case of `N#Cc1ccccc1-c1c(O)nc(SCc2ccccc2Cl)c2c1CCCC2` [Example 292], the IC50 is reported as 288 nM. `N#Cc1ccccc1CSc1nc(O)c(Cl)c2ccccc12` [Example 130] gave an IC50 of 2.7 nM. For `O=C(O)c1c(O)nc(SCc2ccccc2Cl)c2c1CCCC2` [Example 6, 1-(2-Chlorobenzylthio)-3-hydroxy-5,6,7,8-tetrahydroisoquinoline-4-carboxylic acid], the IC50 was 470 nM. `N#Cc1cccc(Cl)c1CSc1nc(O)c(C#N)c2ccc(F)cc12` [Example 181] showed an IC50 of 3 nM.

Same assay, conditions: read-out: IC50 (concentration of compound required for 50% inhibition of cortisol formation); microsomes from HEK 293 EBNA cells, 250 nM [3H]-cortisone, 500 μM NADPH, pH 6.5, room temperature
“4,7-Dichloro-1-(2-chlorobenzylthio)isoquinolin-3-ol [Example 109]” showed an IC50 of 671 nM.
